Reference: ChEMBL document CHEMBL1667775, “Design, synthesis and biological evaluation of new thalidomide analogues as TNF-α and IL-6 production inhibitors” (Bioorg Med Chem Lett, 2011)
Active and inactive are the calls of the source. The calls are words filed in the database; no cut-off is given here.

Legend:
[1] = system: PBMC; assay: Cytotoxicity against human PBMC at 1 to 100 uM after 48 hrs by propidium iodure labeling; type: cell-based
[2] = system: PBMC; assay: Cytotoxicity against human PBMC at 1 to 100 uM after 48 hrs by flow cytometry; type: cell-based
[3] = system: PBMC; assay: Antiinflammatory activity in human PBMC assessed as inhibition of LPS-induced TNFalpha production at 1 to 100 uM after 48 hrs by ELISA; type: functional, cell-based
[4] = system: PBMC; assay: Antiinflammatory activity in human PBMC assessed as inhibition of LPS-induced IL-6 production at 1 to 100 uM after 48 hrs by ELISA; type: functional, cell-based
[5] = system: PBMC; assay: Antiinflammatory activity in human PBMC assessed as inhibition of LPS-induced TNFalpha production after 48 hrs by ELISA; type: functional, cell-based
[6] = system: PBMC; assay: Antiinflammatory activity in human PBMC assessed as inhibition of LPS-induced TNFalpha production at 100 uM after 48 hrs by ELISA; type: functional, cell-based
[7] = system: PBMC; assay: Antiinflammatory activity in human PBMC assessed as inhibition of LPS-induced IL-6 production at 100 uM after 48 hrs by ELISA; type: functional, cell-based
[8] = system: PBMC; assay: Antiinflammatory activity in human PBMC assessed as inhibition of LPS-induced TNFalpha production at 1 to 10 uM after 48 hrs by ELISA; type: functional, cell-based
[9] = system: PBMC; assay: Antiinflammatory activity in human PBMC assessed as inhibition of LPS-induced IL-6 production at 1 to 10 uM after 48 hrs by ELISA; type: functional, cell-based

Row | Compound | Activity [1] | Activity [2] | Activity [3] | Activity [4] | Activity [5] | Activity [6] | Activity [7] | Activity [8] | Activity [9]
1 | O=C1C2Cc3ccccc3N2C(=O)N1S(=O)(=O)c1ccc2ccccc2c1 (centres undefined) | Non-toxic | Non-toxic |  |  |  |  |  |  | 
2 | O=C1c2cc3cccnc3n2C(=O)N1S(=O)(=O)c1ccccc1 | Non-toxic | Non-toxic | Active | inactive |  |  |  |  | 
3 | Cc1ccc(S(=O)(=O)N2C(=O)c3cc4ccccc4n3C2=O)cc1 | Non-toxic | Non-toxic |  |  |  |  |  |  | 
4 | O=C(Nc1ccccc1)c1cc2cccnc2n1S(=O)(=O)c1ccccc1 | Non-toxic | Non-toxic |  | Active | Dose-dependent effect |  |  |  | 
5 | O=C(Nc1cccc(S(=O)(=O)N2CCSCC2)c1)c1cc2cccnc2[nH]1 | Non-toxic | Non-toxic | inactive | inactive |  |  |  |  | 
6 | O=C(Nc1ccccc1)c1cc2cccnc2[nH]1 | Non-toxic | Non-toxic | inactive | inactive |  |  |  |  | 
7 | O=C(Nc1cccc(S(=O)(=O)N2CCOCC2)c1)c1cc2cccnc2[nH]1 | Non-toxic | Non-toxic | inactive | inactive |  |  |  |  | 
8 | CCOC(=O)c1ccc(S(=O)(=O)CN2C(=O)C3Cc4ccccc4CN3S2(=O)=O)cc1 (centres undefined) | Non-toxic | Non-toxic |  |  |  | Active | Active | inactive | inactive
9 | O=C(Nc1cccc(S(=O)(=O)N2CCN(c3ccccc3)CC2)c1)c1cc2cccnc2[nH]1 | Non-toxic | Non-toxic | inactive | inactive |  |  |  |  | 
